These results are taken from patent US9012190B2, “Use of thiamine and nicotine adenine dinucleotide for butanol production” (Butamax Advanced Biofuels LLC, priority 2011, dated 2015).

The test system of assay [1] is isobutanol producing NYLA84 strain. The assay is described as follows: Shake flask cultivations with nicotinic acid, vitamin solution or YEP (Example 6). Type of assay: cell-based, Saccharomyces cerevisiae. As to the method:
(§1) The aerobic shake flasks with air permeable lid were incubated at 30° C. and 260 rpm.

Assay [2] relates to isobutanol producing NYLA 84 strain. Nature of the assay: Aerobic shake flask range finding with nicotinic acid (Example 7). The note with it: NA concentrations as low as 6 mg/L, all measurement points (2.00 h, 18.75 h, 24.5 h). The format is cell-based, Saccharomyces cerevisiae. As to the method: The strain used in this Example was the isobutanol producing NYLA 84 strain, described elsewhere herein. Vitamin stock solution contained biotin, 50 mg/L; Ca-panthotenate, 1 g/L; nicotinic acid, 1 g/L; myo-inositol, 25 g/l; thiamine.HCl, 1 g/L; pyridoxine hydrochloride, 1 g/L; p-aminobenzoic acid, 0.2 g/L; riboflavin, 0.2 g/L; and folic acid, 2 mg/L. One liter (1 L) of ergosterol and Tween 80 stock solution contains 10 g of ergosterol dissolved in 500 mL 100% ethanol solution and 500 mL Tween 80.
Glucose and fermentation by-product analysis were determined by a Waters HPLC utilizing a Bio-Rad Aminex HPX-87H column with diode array (DA) operated at 210 nm and a refractive index (RI) detector at 50° C.
Several seed cultures inoculated each with a 1 mL glycerol frozen stock vial were grown in 10 mL base medium for 24 h. At the start of the range finding experiment, seed cultures were pooled and 16 mL each of the pooled seed culture were distributed into 125 mL shake flasks, 2 mL of 1 M MES buffer added, and additionally 2 mL of (a) bidestilled water, (b-d) nicotinic acid (NA) stock solutions with 60 mg/L, 600 mg/L and 1000 mg/L of NA dissolved in bidestilled water, respectively, and (e) YE stock solution with 200 g/l YE. The aerobic shake flasks with air permeable lid were incubated at 30° C. and 260 rpm. Initial OD at λ=600 nm in the cultures was 0.764.

Assay [3] deals with isobutanol producing NYLA84 strain. Nature of the assay: Shake flask cultivations with nicotinic acid, vitamin solution or YEP (Example 8). The format is cell-based, Saccharomyces cerevisiae. As to the method: as §1
For assay [4], the system named is BP1063 isobutanol producing strain. To be noted: bioreactor; NA concentrations of as low as 5 mg/L; vs water control.
Description: One liter (1 L) of inoculum medium contained: 6.7 g, Yeast Nitrogen Base w/o amino acids (Difco 0919-15-3); 2.8 g, Yeast Synthetic Drop-out Medium Supplement Without histidine, leucine, tryptophan and uracil (Sigma Y2001); 20 mL of 1% (w/v) L-leucine; 4 mL of 1% (w/v) L-tryptophan; 1 mL of ergosterol and Tween 80 solution; 3 g of ethanol; 3 g of glucose. Preparation of ergosterol and Tween 80 solution: for 10 mL of the solution, 100 mg of ergosterol was dissolve in 5 mL 100% EtOH and 5 mL Tween 80. It was heated at 70° C. for 10 minutes.
A 125 mL shake flask was inoculated directly from a frozen vial by pipetting the whole vial culture (approx. 1 ml) into 10 mL of the inoculum medium. The flask was incubated at 260 rpm and 30° C. The strain was grown overnight until OD about 1.0. At this point four 2 L baffled shake flasks with 90 mL of the inoculum medium were inoculated from the overnight culture. […]
OD at λ=600 nm was determined in a HEλIOS a spectrophotometer (Thermo Electron Corporation, USA). […] Glucose and fermentation by-product analysis were determined by HPLC utilizing a Shodex® SH-1011 column with a Shodex® SH-G guard column (both available from Waters Corporation, Milford, Mass.), with diode array (DA) and refractive index (RI) detector. […]
Isobutanol was measured in oleyl alcohol, culture broth, and off-gas samples by GC method, HPLC method, and mass-spectrometry, respectively.
Assay [5] deals with isobutanol producing NYLA84 strain. The assay is described as follows: Shake flask fermentation with addition of thiamine or yeast extract (Example 1). Type of assay: cell-based, Saccharomyces cerevisiae. As to the method: The medium contained the following ingredients per L of water: 6.7 g Yeast Nitrogen Base (YNB) w/o amino acids (Difco 0919-15-3); 2.8 g Yeast Synthetic Drop-out Medium Supplement Without histidine, leucine, tryptophan, and uracil (Sigma Y2001); 20 mL of 1% (w/v) L-leucine; 4 mL of 1% (w/v) L-tryptophan; 5 g ethanol; 3 g glucose; and 1.0 mL of the ergosterol and Tween 80. In order to obtain 10 mL ergosterol and Tween 80 solution, 100 mg of ergosterol were dissolved in 5 mL 100% EtOH and 5 mL Tween 80 and then heated until sterile and dissolved (10 min at 70° C.).
In the shake flask experiments described, the following were added to 125 mL shake flasks: 16 mL of the culture broth; 2 mL of the 1 M MES buffer; and 2 mL of the addition (H2O, YE, TH). The following additions were prepared: yeast extract (YE, final concentration 10 g/L); thiamine (TH, final concentration 6, 60, and 100 mg/L).
In order to provide the culture broth, seed cultures were started in 125 mL shake flasks with air permeable lids (10 mL medium inoculated with 1 mL inoculum from a frozen vial). […] The OD was measured at λ=600 nm (Spectrophotometer from Thermo Electron Corporation Heλios Alpha, USA). […] Ergosterol and Tween 80 was added to the medium to a final concentration of 1 mL/L. Seed (10 mL) was inoculated into 2 L shake flask with 135 mL of the medium. Separately, 2 mL of the H2O, YE, TH additions were added to new 125 ml shake flasks. Into the 2 L shake flask, 16 mL of 1 M MES buffer was added and 5.3 mL of 50% (w/w) glucose solution. Eighteen (18) mL of this culture broth was distributed into the 125 mL shake flasks with prepared additions. The aerobic shake flasks with air permeable lid were incubated at 30° C. and 260 rpm. The anaerobic shake flasks were treated in anaerobic hood and incubated at 30° C. and 260 rpm. The anaerobic shake flasks were sampled in the anaerobic hood.
The effect of thiamine on isobutanol production was analyzed using shake flask fermentation. Shake flask fermentations were performed under both aerobic and anaerobic conditions in the presence of water (negative control), yeast extract (YE, positive control, final concentration 10 g/L), or thiamine (TH, final concentration 100 mg/L) with isobutanol producing NYLA84 strain. The final biomass (X), isobutanol concentrations, and specific isobutanol production rates (qP) were measured and are shown in FIG. 1.

[6] abbreviates: aerobic (25.8 h) and anaerobic (24.2 h) shake flasks.
Where [7] appears, read: isobutanol, glucose consumption, biomass.
Where [8] appears, read: aerobic and anaerobic shake flasks, sampled after 6.3 and 20.8 h.
Where [9] appears, read: aerobic shake flasks, thiamine 100 mg/L.

For `O=C(O)c1cccnc1` [NA, nicotinic acid], in assay [1] (setting [6]), the “biomass formation compared to the negative control” value is listed as “increased”, the “consumption of glucose compared to the negative control” value was “increased” and the “isobutanol production compared to the negative control” value is “increased”. In addition, the “increase under anaerobic versus aerobic conditions” value in assay [1] (setting [7]) is “significantly more pronounced under anaerobic than under aerobic conditions”. Moreover, in assay [2], the “biomass titers compared to control culture without NA” value is on record as “significantly increased” and the “isobutanol titers compared to control culture without NA” value is given as “significantly increased”. Besides, in assay [3] (setting [8]), the “biomass formation compared to the negative control” value is “increased”, the “consumption of glucose compared to the negative control” value was “increased” and the “isobutanol production compared to the negative control” value is on record as “increased”. Further, in assay [3] (setting [7]), the “increase under anaerobic versus aerobic conditions” value is “significantly more pronounced under anaerobic than under aerobic conditions”. Further, the “final isobutanol titers in the aqueous phase” value in assay [4] is reported as “improved”.

Regarding `Cc1ncc(C[n+]2csc(CCO)c2C)c(N)n1` [thiamine], in assay [5] (aerobic flasks, thiamine 100 mg/L vs yeast extract 10 g/L), the “initial qP compared with yeast extract” value was “about the same as achieved with yeast extract”. In addition, in assay [5] (aerobic flasks, thiamine 100 mg/L, vs water control), the “initial qP higher than the control” value was found to be 75%. The “initial qP (specific isobutanol production rate)” value in assay [5] (aerobic flasks, thiamine final concentration 100 mg/L, first 24 fermentation hours) was 0.14 g/g/h. In addition, in assay [5] (aerobic shake flasks), the “accumulation of keto-isovaleric acid in control shake flasks compared to flasks with the addition” value was “several times higher”. In assay [5] (aerobic shake flasks, final concentrations of 6, 60, and 100 mg/L thiamine), the “isobutanol titers at the three concentrations” value is reported as “similar”. In assay [5] (setting [9]), the “final biomass concentration compared to the control” value is “higher” and the “titers of isobutanol compared to the control” value was “higher”.
